Measurements reported in US20120003661A1, “METHODS AND DEVICES FOR THE SELECTIVE DETECTION OF MICROORGANISMS” (C3 JIAN, INC., priority 2010, published 2012).
Entries after “also recorded” stand apart in the source; their conditions may differ. Like-named read-outs stand apart in the source and are kept apart here.

System: bacteria, fungi, and/or yeasts
Format: binding
[1] = microorganism(s) listed as target(s) of the targeting peptide, wrapped target lists given cell by cell
[2] = microorganism(s) the targeting peptide binds, as listed in Table 2
[3] = microorganism(s) that the targeting peptide binds, as listed in Table 2

Row | Substance | Target(s) [1] | Target(s) [2] | further results
1 | PF-104 (ERTAVNDLWI) | MRSA, C. jeikeium | – | –
2 | 1T-304 (STAGEASRRTASEASRRTAAKLRG) | P. gingivalis | – | –
3 | 1T-38 (VMFVLTRGRSPRPMIPAY) | – | S. mutans, S. aereus, S. epidermidis,; also recorded: C. jeikeium, C. xerosis,; also recorded: C. striatum, P. aeruginosa | –
4 | PF-Y (FIKHFIHRF) | – | – | Target(s) [3]: S. mutans
5 | PF-799 (YTHYNTALSYALLLTNKSSVP) | – | – | Target(s) [3]: S. mutans
6 | 1T-120 (DVRDRVDLAGADLCAAHATR) | – | A. naeslundii, F. nucleatum, P. gingivalis,; also recorded: S. epidermidis, S. gordonii,; also recorded: S. mitis, S. mutans, S. oralis,; also recorded: S. salivarious, S. sanguinis | –
7 | PF-014 (HPTDNKHN) | E. coli, C. jeikeium | – | –
8 | PF-C134 (NELMKYPATLTATATTPGIKYSHLCSVCL) | – | – | Target(s) [3]: A. naeslundii, F. nucleatum, P. gingivalis,; also recorded: S. mutans, T. denticola
9 | PF-C098 (PETKGKVSAFVFGIVVANVIAVVYILYMLREIGIIQ) | – | – | Target(s) [3]: A. naeslundii, F. nucleatum, P. gingivalis,; also recorded: S. mutans, T. denticola
10 | 1T-30 (GKAKPYQVRQVLRAVDKLETRRKKGGR) | – | S. aureus, S. epidermidis, C. xerosis,; also recorded: C. striatum, P. aeruginosa | –
11 | PF-155 (GRYGDDSKERQGRAQ) | C. jeikeium | – | –
12 | 1T-137 (PLNFYRAVKENRLPLSEKNINDFTNIKLKVSPKLINLLQESSIFYNFSPKKRNTN) | – | A. naeslundii, F. nucleatum, P. gingivalis,; also recorded: S. epidermidis, S. gordonii,; also recorded: S. mitis, S. mutans, S. oralis,; also recorded: S. salivarious, S. sanguinis | –
13 | PF-049 (AYYLKRREEKGK) | S. epidermidis, MRSA, C. jeikeium,; also recorded: C. jejuni | – | –
14 | 1T-237 (EDPVPNHFTLRRNKKEKPSKS) | – | S. sanguinis | –
15 | 1T-181 (YGKESDP) | – | A. naeslundii, F. nucleatum, P. gingivalis,; also recorded: T. denticola, S. gordonii,; also recorded: S. mitis, S. mutans, S. oralis,; also recorded: S. salivarious, S. sanguinis | –
16 | 1T-126 (QGLARPVLRRIPL) | – | S. gordonii, S. mitis, S. mutans | –
17 | 1T-98 (VRSAKAVKALTAAGYTGELVNVSGGMKAWLGQ) | – | A. naeslundii, F. nucleatum, P. gingivalis,; also recorded: S. epidermidis, S. gordonii,; also recorded: S. mitis, S. mutans, S. oralis,; also recorded: S. salivarious, S. sanguinis | –
18 | 1T-138 (YPNEYCIFLENLSLEELKEIKAINGETLNLEEIINERKNLKD) | – | A. naeslundii, F. nucleatum, P. gingivalis,; also recorded: S. epidermidis, S. gordonii,; also recorded: S. mitis, S. mutans, S. oralis,; also recorded: S. salivarious, S. sanguinis | –
19 | PF-C273 (KNMLKRRMKQKRLFDEEDRLRVLSKYTKSYY) | – | – | Target(s) [3]: A. naeslundii, P. gingivalis, S. mutans,; also recorded: T. denticola
20 | 1T-248 (IGGALNSCG) | – | S. sanguinis | –
21 | PF-166 (SKAVSRKRSI) | E. coli, C. jeikeium | – | –
22 | 1T-113 (HGAHQRTGQRLHHHRGRTVSGCRQNPVAGVDPDEHR) | – | S. mitis | –
23 | 1T-79 (FGTPWSITNFWKKNFNDRPDFDSDRRRY) | – | S. pneumoniae | –
24 | PF-161 (RGRALASTATTRPARRRR) | S. epidermidis, M. luteus, E. coli,; also recorded: C. jejuni | – | –
25 | 1T-249 (VFSVLKHTTWPTRKQSWHDFISILEYSAFFALVIFIFDKLLTLGLAELLKRF) | F. nucleatum, S. sanguinis | – | –

Row | Substance | Target(s) [1] | Target(s) [2] | further results
26 | PF-C145 (YGKESDP) | – | – | Target(s) [3]: A. naeslundii, F. nucleatum, P. gingivalis,; also recorded: S. mutans, T. denticola
27 | PF-789 (PRGAQSGHG) | – | – | Target(s) [3]: Mycobacteria spp.
28 | PF-041 (ELLVILPGFI) | MRSA | – | –
29 | 1T-74 (DIDWGRKISCAAGVAYGAIDGCATTV) | – | S. pneumoniae | –
30 | 1T-27 (ALFVSLEQFLVVVAKSVFALCHSGTLS) | – | S. mutans, S. aureus, S. epidermidis,; also recorded: C. jeikeium, C. xerosis,; also recorded: C. striatum, P. aeruginosa | –
31 | PF-047 (NQEPSLQQDKEQKDNKG) | S. mutans | – | –
32 | 1T-116 (MILHRRRDR) | – | A. naeslundii, P. gingivalis, S. epidermidis,; also recorded: S. gordonii, S. mitis,; also recorded: S. mutans, S. oralis, S. salivarious,; also recorded: S. sanguinis | –
33 | 1T-35 (EICLTLVFPIRGSYSEAAKFPVPIHIVEDGTVELPK) | – | P. aeruginosa | –
34 | 1T-119 (SPATQKAPTRAQPSRAPVQDCGDGRPTAAPDDVERLSPR) | – | S. gordonii, S. mitis, S. mutans,; also recorded: S. oralis | –
35 | PF-C055 (YNLSIYIYFLHTITIAGLITLPFII) | – | – | Target(s) [3]: A. naeslundii, F. nucleatum, P. gingivalis,; also recorded: S. mutans
36 | PF-141 (VVRRFQGM) | C. albicans hyphae; also recorded: S. epidermidis, M. luteus, C. albicans,; also recorded: MRSA, C. jeikeium | – | –
37 | PF-017 (ESIIE) | E. coli | – | –
38 | PF-791 (IFLTTQNTDYSEHNAA) | – | – | Target(s) [3]: S. mutans
39 | PF-C050 (QGLARPVLRRIPL) | – | – | Target(s) [3]: A. naeslundii, S. mutans
40 | 1T-174 (SGGSDTDGSSSGEPGSHSGDL) | – | A. naeslundii, F. nucleatum, P. gingivalis,; also recorded: T. denticola, S. gordonii,; also recorded: S. mitis, S. mutans, S. oralis,; also recorded: S. salivarious, S. sanguinis | –
41 | 1T-26 (LTILPTTFFAIIVPILAVAFIAYSGFKIKGIVEHKDQW) | – | S. mutans, S. aureus, S. epidermidis,; also recorded: C. jeikeium, C. xerosis,; also recorded: C. striatum, P. aeruginosa | –
42 | PF-070 (SMVKSEIVDLLNGEDNDD) | S. epidermidis, C. jejuni | – | –
43 | 1T-275 (QVLKNFSISRRYKINNPFFKILLFIQLRTL) | A. naeslundii, F. nucleatum, P. gingivalis,; also recorded: T. denticola, S. epidermidis,; also recorded: S. gordonii, S. mitis,; also recorded: S. mutans, S. oralis, S. salivarious,; also recorded: S. sanguinis | – | –
44 | PF-063 (IAAIIVLVLFQKGLLQIFNWILIQLQ) | S. epidermidis, M. luteus, E. coli,; also recorded: P. aeruginosa, MRSA, S. pneumoniae,; also recorded: E. faecalis, C. jeikeium,; also recorded: C. jejuni | – | –
45 | PF-029 (NSTNE) | S. epidermidis, M. luteus, C. albicans,; also recorded: C. jejuni | – | –
46 | 1T-84 (FRKKRYGLSILLWLNAFTNLVNSIHAFYMTLF) | – | S. pneumoniae | –
47 | 1T-239 (ADDLLNKRLTDLIMENAETVKTIDLDNSD) | – | A. naeslundii, S. gordonii, S. mitis,; also recorded: S. mutans, S. oralis, S. sanguinis | –
48 | 1T-223 (NQKMEINSMTSEKEKMLAGHFHNEANFAVIFKYSLFYNFF) | – | A. naeslundii, F. nucleatum, P. gingivalis,; also recorded: S. epidermidis, S. gordonii,; also recorded: S. mitis, S. mutans, S. oralis,; also recorded: S. salivarious, S. sanguinis | –
49 | 1T-270 (VHEFDIQKILQNR) | F. nucleatum, S. mutans, S. oralis,; also recorded: S. sanguinis | – | –
50 | 1T-41 (KRGSKIVIAIAVVLIVLAGVWVW) | – | S. mutans, S. aureus, S. epidermidis,; also recorded: C. jeikeium, C. striatum,; also recorded: P. aeruginosa | –

Row | Substance | Target(s) [1] | Target(s) [2] | further results
51 | PF-054 (VSISRFIGGGHVFNGNNKRNL) | S. epidermidis, E. coli | – | –
52 | 1T-162 (QKAKEESDRKAAVSYNGFHRVNVVSIPK) | – | A. naeslundii, F. nucleatum, P. gingivalis,; also recorded: T. denticola, S. gordonii,; also recorded: S. mitis, S. mutans, S. oralis,; also recorded: S. salivarious, S. sanguinis | –
53 | 1T-73 (GWWEELLHETILSKFKITKALELPIQL) | – | S. pneumoniae | –
54 | PF-C052 (SRFRNGV) | – | – | Target(s) [3]: A. naeslundii, F. nucleatum, S. mutans
55 | 1T-170 (AYGKVFSMDIMLSENDKLIVLRISHHSAWH) | – | P. gingivalis | –
56 | 1T-115 (LLIERFSNHH) | – | A. naeslundii, F. nucleatum, P. gingivalis,; also recorded: S. epidermidis, S. gordonii,; also recorded: S. mitis, S. mutans, S. oralis,; also recorded: S. salivarious, S. sanguinis | –
57 | PF-066 (IKGTVKAVDETTVVITVNGHGTELTFEKPAIKQVDPS) | M. luteus, E. coli, C. jeikeium | – | –
58 | 1T-123 (LVRRNAVAGRSDGLAGAEQLDLVRLQGVL) | – | S. gordonii | –
59 | PF-038 (MAYKDEGKETKFAVKGYKD) | M. luteus | – | –
60 | 1T-198 (MPVSKKRYMLSSAYATALGICYGQVATDEKESEITAIPDLLDYLSVEEYLL) | – | P. gingivalis, S. epidermidis, S. gordonii,; also recorded: S. mitis, S. mutans, S. oralis,; also recorded: S. sanguinis | –
61 | PF-043 (MIKNETAYQMNELLVIRSAYAK) | M. luteus, C. jejuni | – | –
62 | PF-C071 (QVIVKIL) | – | – | Target(s) [3]: A. naeslundii, F. nucleatum, S. mutans
63 | 1T-39 (FGFCVWMYQLLAGPPGPPA) | – | S. mutans, P. aeruginosa | –
64 | 1T-87 (EAVGQDLVDAHHP) | – | S. mitis, S. mutans, S. oralis | –
65 | 1T-238 (IFNRRKFFQYFGLSKEAMVEHIQPFILDIWQIHLF) | – | A. naeslundii, F. nucleatum, P. gingivalis,; also recorded: S. epidermidis, S. gordonii,; also recorded: S. mitis, S. mutans, S. oralis,; also recorded: S. salivarious, S. sanguinis | –
66 | 1T-278 (SINSSAGIQPHCLSSSFVLRTKHCFY) | A. naeslundii, F. nucleatum, P. gingivalis,; also recorded: S. gordonii, S. mitis,; also recorded: S. mutans, S. oralis, S. salivarious,; also recorded: S. sanguinis | – | –
67 | PF-065 (LEKNTRDNYFIHAIDRIYINTSKGLFPESELVAWG) | M. luteus, E. coli, P. aeruginosa,; also recorded: C. albicans, MRSA, S. pneumoniae,; also recorded: C. jeikeium, C. jejuni | – | –
68 | PF-145 (GIVLTGRAGLVSGACSMALGVGLG) | S. epidermidis, M. luteus, P. mirabilis,; also recorded: E. coli, P. aeruginosa,; also recorded: C. albicans, MRSA, S. pneumoniae,; also recorded: E. faecalis, C. jeikeium,; also recorded: C. jejuni, M. smegmatis | – | –
69 | 1T-105 (GEGLPPPVLHLPPPRMSGR) | – | S. epidermidis, S. gordonii, S. mitis,; also recorded: S. mutans, S. oralis | –
70 | 1T-179 (TCYPLIQRKTDRAYEA) | – | A. naeslundii, F. nucleatum, P. gingivalis,; also recorded: T. denticola, S. gordonii,; also recorded: S. mitis, S. mutans, S. oralis,; also recorded: S. salivarious, S. sanguinis | –
71 | PF-133 (GDPTAGQKPVECP) | S. epidermidis, C. jeikeium, C. jejuni,; also recorded: M. smegmatis | – | –
72 | PF-794 (NLYFENQGN) | – | – | Target(s) [3]: S. mutans
73 | PF-010 (MDIDVNKLLQAFVYFKSFEKLRHNNS) | S. epidermidis, M. luteus, E. coli,; also recorded: C. albicans | – | –
74 | Rv2561 (QHQCPGMRPAPADAPEVPHAARADQKRPSLRL) | C. albicans | – | –
75 | PF-042 (LLLSYFRYTGALLQSLF) | S. epidermidis, M. luteus, P. mirabilis,; also recorded: E. coli, P. aeruginosa,; also recorded: C. albicans, MRSA, S. pneumoniae,; also recorded: E. faecalis, C. jeikeium | – | –
